In publication PMC10065799, “High-throughput profiling of sequence recognition by tyrosine kinases and SH2 domains using bacterial peptide display” (eLife, 2023):

How the values were obtained:
c-Src kinase domain = c-Src kinase domain (Homo sapiens, UniProt P12931); test: pTyr-Var library bacterial peptide display kinase screen (enrichment scores); type: biochemical; conditions: sheet "Src";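 further: log2 fold change in enrichment of variant over reference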
Fer kinase domain = test: as above; type: biochemical, mouse; conditions: sheet "Fer"
EPHB1 kinase domain = test: as above; type: biochemical, human; conditions: for Screen: sheet EPHB1, effect of the variant peptide relative to its reference peptide in the pTyr-Var library screen (enrichment scores); for Screen (variant relative to reference peptide, measured in the pTyr-Var library screen): sheet "EPHB1", variant seq vs reference seq, bacterial peptide display enrichment
EPHB2 kinase domain [1] = test: as above; type: biochemical, human; conditions: sheet EPHB2
c-Abl kinase domain [2] = biological target: T1, c-Abl kinase domain (Mus musculus, UniProt P00520); test: as above; type: biochemical
T1 sequence (P00520 242-493 limits assumed): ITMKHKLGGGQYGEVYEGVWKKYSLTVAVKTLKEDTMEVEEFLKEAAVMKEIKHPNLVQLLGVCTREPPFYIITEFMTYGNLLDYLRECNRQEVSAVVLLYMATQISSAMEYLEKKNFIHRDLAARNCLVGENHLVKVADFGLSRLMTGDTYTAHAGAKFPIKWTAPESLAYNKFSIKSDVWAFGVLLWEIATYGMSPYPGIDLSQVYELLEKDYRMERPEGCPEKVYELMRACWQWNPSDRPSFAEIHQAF

c-Abl kinase domain [3] = biological target: T1, c-Abl kinase domain; test: ADP-Quest continuous fluorimetric kinase assay (Michaelis-Menten parameters and initial rates); type: biochemical; conditions: peptide 100 μM, kinase 10–50 nM; Figure 2C
Description: (§1) A fluorescence-based assay from Eurofins (ADP Quest) was used to measure the Michaelis-Menten kinetic parameters for phosphorylation of the consensus peptides by purified tyrosine kinase domains. In this assay, ADP production as a result of kinase activity is coupled to the production of resorufin, a fluorophore that emits signal at 590 nm. For all experiments, the assay reactions were set up as described in the provided assay kit protocol, in a 384 well plate format. The peptide solutions were serially diluted in 100 mM Tris, pH 8.0, and the kinases were diluted to 50 nM in buffer (10 mM HEPES, 100 mM NaCl, 1 mM TCEP, 5 mM MgCl2, 10% (v/v) glycerol). The final reaction mixtures contained 10 nM of kinase with 100 μM of ATP. […] Phosphorylation reaction progress was monitored by measuring fluorescence at excitation 530 nm and emission 590 nm every 2 min at 37 °C on a plate reader (BioTek Synergy Neo 2). The fluorescence units (RFU) were converted to μM ADP by comparison to a standard curve, and the initial rates were extracted from the linear regime of the reaction progress curves. Initial rates were also measured for samples containing each kinase but lacking a peptide substrate, to account for background ATP hydrolysis. This background rate was subtracted from the rates measured in the presence of peptide. […]

EPHB2 kinase domain [4] = test: ADP-Quest continuous fluorimetric kinase assay (initial rates of consensus peptides); type: biochemical, human; conditions: peptide 100 μM, kinase 10–50 nM; Figure 2C
Description: as §1

[5] = effect of the variant peptide relative to its reference peptide in the pTyr-Var library screen
[6] = value of the variant peptide against its reference peptide in the pTyr-Var library screen with Fer
[7] = effect of variant peptide relative to its reference peptide in the pTyr-Var library screen (enrichment scores)
[8] = variant peptide versus its reference peptide in the pTyr-Var library screen
[9] = variant peptide relative to its reference peptide, pTyr-Var library screen enrichment
[10] = sheet "Abl", effect of variant peptide relative to its reference peptide in pTyr-Var library screen (enrichment)
[11] = effect of the variant relative to its reference peptide in the pTyr-Var library screen
[12] = fig5-data2, sheet "Abl", Screen for the variant/reference peptide pair, pTyr-Var library

Substance	Screen (c-Src kinase domain; [5])	Screen (Fer kinase domain; [6])	Screen (EPHB1 kinase domain)	Screen (EPHB2 kinase domain [1]; [7])	also measured
RGDCMYASLLG [AR_Y269_P271S]	0.07196	-2.075	-1.7	-2.657	
LLDGEYFTLQI [TP53_Y327_P322L]					Screen (c-Src kinase domain; [8]): 0.8932; Screen (Fer kinase domain; [9]): 0.2479; Screen (variant relative to reference peptide, measured in the pTyr-Var library screen) (EPHB1 kinase domain): 0.245
DSFATYFRWVL [H2BW1_Y84_R87W]	2.683	2.515	1.664		
PTKNDYWAMPA [WWOX_Y287_L291P]					Screen (c-Abl kinase domain [2]; [10]): -1.562; Screen (variant relative to reference peptide, measured in the pTyr-Var library screen) (EPHB1 kinase domain): 3.488; Screen (EPHB2 kinase domain [1]; [11]): 3.139
NIEPIYLNMLL [ATR_Y317_V316I]	0.03812	0.3194	0.9992	1.556	
NREGVYRVFAP [TGFBI_Y537_T538R]					Screen (c-Src kinase domain; [8]): -0.9266; Screen (Fer kinase domain; [9]): -4.485; Screen (variant relative to reference peptide, measured in the pTyr-Var library screen) (EPHB1 kinase domain): -2.691; Screen (EPHB2 kinase domain [1]; [11]): -2.433
EAVSIYQFFGQ [CBLC_Y402_H405Y_YF]	-0.1267	-0.2521	2.283	1.796	
LASLIYNFILF [AQP6_Y231_V234I]	0.7887	0.3008	0.3462	-1.512	
LRWREYQRQDF [PRKRIP1_Y90_R87W_YF]		1.318	1.398	1.877	Screen (c-Src kinase domain; [8]): 1.62
FFPANYVAPMT [GRAP2_Y324_L319F]			0.4698	0.7095	
DSNLIYSQIWS [FCRL3_Y662_P660L]	-0.2629	-0.3219	-0.4048	-0.3687	
LIFVSYDDWDF [GRIN2A_Y281_S278F_YF]	0.7047	-0.259	0.6915	1.496	
RKVLVYDKLNV [ROR2_Y624_N620K]			-0.6022	-1.435	Screen (c-Src kinase domain; [8]): -1.144; Screen (Fer kinase domain; [9]): -1.726
Ac-GPPEPIYEVPPPKKKG-NH2 [EPHB2 Consensus, EPHB2 consensus substrate peptide from X5-Y-X5 screen]					phosphorylation of consensus peptide by c-Abl (initial rate relative to cognate consensus) (c-Abl kinase domain [3]): efficiently phosphorylated; phosphorylation of consensus peptide by EPHB2 (initial rate relative to cognate consensus) (EPHB2 kinase domain [4]): efficiently phosphorylated
LTERDYSFVTT [ACTG2_Y199_G198D]		1.738	1.497	1.327	
LGQRIYQFIRS [DYRK1B_Y271_Q275R_YF]	-0.5682	-0.8955	-0.4041	-1.048	
NTILLYHIMAW [GPR143_Y157_S152N]			0.2317	0.3631	Screen (c-Abl kinase domain [2]; [12]): 0.6057
DNEAIYDICRC [TUBA4A_Y210_R215C]					Screen (c-Src kinase domain; [8]): 0.192; Screen (c-Abl kinase domain [2]; [10]): -0.2438; Screen (Fer kinase domain; [9]): -0.3932; Screen (variant relative to reference peptide, measured in the pTyr-Var library screen) (EPHB1 kinase domain): -1.159; Screen (EPHB2 kinase domain [1]; [11]): -0.1529

Substance	Screen (c-Src kinase domain; [5])	Screen (Fer kinase domain; [6])	Screen (EPHB1 kinase domain)	Screen (EPHB2 kinase domain [1]; [7])	also measured
ANAFIYDVQLP [L1CAM_Y420_V421D_YF]	2.894		1.352		
FADGVYLALEE [DUOX2_Y70_Q71L_YF]	-0.6157		-0.7119	-0.6876	
PIFLFYLMDLS [ITGB2_Y131_D128Y_YF]	-0.3916		1.841		
FVFSFYHAFSG [ACTN4_Y265_S262F_YF]	-2.513		-0.8684		
NPIGLYSAEIL [LDB3_Y202_T206I]		1.652	0.7886	0.5797	
LENSTYQFICV [CRB1_Y760_R764C_YF]	-1.066	-1.109	-0.5365	0.2665	Screen (c-Abl kinase domain [2]; [12]): 0.05369
FAELMYTGFWH [ASS1_Y322_V321M]	-0.1313	-0.4066	0.6121	0.8429	
RAILLYEFVGK [NATD1_Y45_V42I_YF]		1.125	1.082	1.274	Screen (c-Src kinase domain; [8]): 1.103
DASENYFVMDS [TMEM240_Y77_T80M]					Screen (variant relative to reference peptide, measured in the pTyr-Var library screen) (EPHB1 kinase domain): 2.244; Screen (EPHB2 kinase domain [1]; [11]): 2.274
HGEAFYSEVKA [PAK5_Y182_P187A_YF]		-0.1663	-0.6457		Screen (c-Src kinase domain; [8]): 0.7945
ITNLLYHVVSW [GBA_Y412_G416S]	-0.28		0.5526	0.7379	
GNLLIYTDFGK [HGD_Y166_E168D]	-0.3604		0.7596		
QNTGDYCDLFG [PTPN11_Y62_Y63C_YF]			-1.22	-1.274	Screen (c-Src kinase domain; [8]): -0.9656
SCPANYFAFKI [FAM3D_Y65_P60S]	-0.7557		-0.6297	-0.7683	
SPPILYSFFLN [FCRL6_Y239_D244N_YF]	0.0865	1.473	0.08597	0.2765	
RRIFSYRGHLW [VHL_Y112_H110Y_YF]					Screen (c-Src kinase domain; [8]): -2.013; Screen (c-Abl kinase domain [2]; [10]): -4.34; Screen (variant relative to reference peptide, measured in the pTyr-Var library screen) (EPHB1 kinase domain): -1.652
LPEENYQVLCF [ARHGAP1_Y365_R369C]	2.107	1.701	1.32	1.989	
MSRNLYSGDCF [DDR2_Y736_Y740C_YF]	-1.107	-0.7796	-1.85	-2.168	
